Here are results for two compounds from patent publication EP2805715A1, “Inhibitors of RNR2 subunit of ribonucleotide reductase to impair reverse transcription of hiv related lentiviruses in macrophages and use thereof for the treatment of hiv infected patients” (INSTITUT PASTEUR, priority 2013, dated 2014).

One data set has as its system MDM. Kind of data set: MDM viability. Format: cell-based, human.
For a further data set, the system named is HIV-1/VSV-G. Format: cell-based.

Counter-ions that a name gives are not always drawn. Like-named read-outs stand apart in the source and are kept apart here.

Turning to `CC(=O)N(O)CCCCCNC(=O)CCC(=O)N(O)CCCCCNC(=O)CCC(=O)N(O)CCCCCN` [DFO, Deferoxamine mesylate], the MDM viability result in the data set with MDM is “not affected”. Further, the “HIV-1 replication, fold changes of luciferase activity with respect to mock treated cells” value in the data set with HIV-1/VSV-G is given as “Dose dependent inhibition”.
On to `NC(=O)NO` [HU, Hydroxyurea], for which, in the data set with MDM (at the concentrations used in the assays (data not shown)), the MDM viability result was “not affected”. For the same compound, the “HIV-1 replication, fold changes of luciferase activity with respect to mock treated cells” value in the data set with HIV-1/VSV-G is “Dose dependent inhibition”.
